From patent US6365607B1, “Anticachectic composition” (Takeda Chemical Industries, Ltd., priority 1996, dated 2002)
Read-outs that look alike come from different tables or passages of the source.

What was measured:
[1] = test system: fat cells in rat epididymis adipose tissue; assay: Antilipolytic activity: glycerol released from IL-1β-treated rat fat cells; type: cell-based; conditions: read-out: antilipolytic concentration IC50
Protocol: In accordance with the method of Green et al. [Endocrinology, 134, 2581-2588 (1994)], the antilipolytic activity of the compound of the present invention was evaluated by quantitating the glycerol released from fat cells in rat epididymis adipose tissue.
Thus, the rat epididymis adipose tissue was isolated, cut into pieces with a pair of scissors, and digested into fat cells by agitating in collagenase-containing phosphate buffer for 1 hour. To a culture solution containing fat cells was added 10 ng/ml of IL-1β (manufactured by Pharmingen, PM-19101V). Then, in treatment groups, solutions of compound (2) in N,N-dimethylformamide at graded concentrations were respectively added. After 24 hours, the supernatant was recovered and the glycerol therein was quantitated with an assay kit (manufactured by Sigma, 337-A). The amount of released glycerol in each group treated with compound (2) relative to that in the control group was determined to find the inhibition rate and the 50% inhibition concentration IC50 of the compound was calculated. The antilipolytic concentration IC50 value of compound (2) was 4 nM.
The antilipolytic activity of indomethacin was evaluated by the same method as in Test Example 1. The antilipolytic concentration IC50 value of indomethacin was not less than 10 mM.

[2] = test system: tumor-bearing mice (mouse colon cancer cell line Colon 26); assay: Weight loss inhibitory activity in tumor-bearing mice (Colon 26 cachexia model); type: in vivo; conditions: CDF1 mice
Protocol: Using the mouse colon cancer cell line Colon 26 (Tanaka et al., Cancer Research, 50, 4528-4532 (1990)), which is a system known to be high in the reproducibility of cancer cachectic symptoms, the inhibitory effect of the compound of the present invention on lipolysis and body weight loss was evaluated.
Thus, 1×10^6 Colon 26 cells were transplanted sub-dermaly in 4-week-old CDF1 mice. On day 14 after transplantation, the mice were divided into groups according to tumor size. A 5% (w/v) gum arabic suspension containing compound (2) was administered orally in a dose of 1.0 mg/kg to one group of mice and, as a control, a 5% (w/v) gum arabic suspension was similarly administered to another group, once daily for 7 days in each case. An additional group of mice was not transplanted with Colon 26 cells (normal group). On days 14, 18 and 21 after transplantation, the mice were weighed. On day 22 after transplantation, each mouse was autopsied and the epididymis adipose tissue was isolated and weighed. Changes in mouse body weight and adipose tissue weight are shown in Table 1 and Table 2, respectively.

Compound | IC50 ([1]; inhibition of glycerol release, 10 ng/ml IL-1β, 24 hours) | body weight of tumor-bearing mice, 21st Day after transplantation ([2]; 1.0 mg/kg orally once daily for 7 days from day 14) | body weight of tumor-bearing mice, 18th Day after transplantation ([2]; 1.0 mg/kg orally once daily from day 14) | body weight of tumor-bearing mice, 14th Day after transplantation ([2]; day 14 (grouping, start of dosing), 1.0 mg/kg orally once daily for 7 days) | IC50 ([1]; same method as Test Example 1 (glycerol release, IL-1β, 24 hours))
Cc1oc(-c2ccccc2)nc1C(O)COc1ccc(CC2SC(=O)NC2=O)cc1 (centres unmarked) [compound (2), 5-[4-[2-hydroxy-2-(5-methyl-2-phenyl-4-oxazolyl)ethoxy]benzyl]-2,4-thiazolidinedione] | 0.004 µM | 25.6 g | 26.3 g | 26.3 g | –
COc1ccc2c(c1)c(CC(=O)O)c(C)n2C(=O)c1ccc(Cl)cc1 [indomethacin, reference compound] | – | – | – | – | ≥ 10000 µM
